Experimental data reported in ChEMBL document CHEMBL4808191, “Design, synthesis and biological evaluation of novel deoxyvasicinone-indole as multi-target agents for Alzheimer's disease” (Bioorg Med Chem Lett, 2021).
Active and inactive are the calls of the source. No cut-off for these calls is given here.

Experiments:
[1] = molecular target: Acetylcholinesterase (Electrophorus electricus, UniProt O42275); assay: Inhibition of electric eel AChE by Ellman's method
[2] = molecular target: Cholinesterase (Equus caballus, UniProt P81908)
Description: Inhibition of equine serum BuChE by Ellman's method

[3] = molecular target: Amyloid-beta precursor protein (Homo sapiens, UniProt P05067)
[4] = molecular target: Acetylcholinesterase (Homo sapiens) (UniProt P22303); assay: Inhibition of AChE (unknown origin)-induced amyloid beta(1 to 42) aggregation by thioflavin-T fluorescence assay; details: concentration not given here
[5] = molecular target: Acetylcholinesterase (Homo sapiens) (UniProt P22303); assay: Mixed type inhibition of AChE (unknown origin) assessed as increase in Km by Lineweaver-Burk plot analysis
[6] = molecular target: Acetylcholinesterase (Homo sapiens) (UniProt P22303); assay: Mixed type inhibition of AChE (unknown origin) assessed as decrease in Vmax by Lineweaver-Burk plot analysis
[7] = tested on: BV-2; assay: Cytotoxicity against mouse BV-2 cells assessed as effect on cell viability at <12.5 uM by CCK8 assay; format: cell-based
[8] = tested on: PC-12; assay: Cytotoxicity against rat PC12 cells assessed as effect on cell viability at <12.5 uM by CCK8 assay; format: cell-based

Acetylcholinesterase, sequence (O42275 whole entry): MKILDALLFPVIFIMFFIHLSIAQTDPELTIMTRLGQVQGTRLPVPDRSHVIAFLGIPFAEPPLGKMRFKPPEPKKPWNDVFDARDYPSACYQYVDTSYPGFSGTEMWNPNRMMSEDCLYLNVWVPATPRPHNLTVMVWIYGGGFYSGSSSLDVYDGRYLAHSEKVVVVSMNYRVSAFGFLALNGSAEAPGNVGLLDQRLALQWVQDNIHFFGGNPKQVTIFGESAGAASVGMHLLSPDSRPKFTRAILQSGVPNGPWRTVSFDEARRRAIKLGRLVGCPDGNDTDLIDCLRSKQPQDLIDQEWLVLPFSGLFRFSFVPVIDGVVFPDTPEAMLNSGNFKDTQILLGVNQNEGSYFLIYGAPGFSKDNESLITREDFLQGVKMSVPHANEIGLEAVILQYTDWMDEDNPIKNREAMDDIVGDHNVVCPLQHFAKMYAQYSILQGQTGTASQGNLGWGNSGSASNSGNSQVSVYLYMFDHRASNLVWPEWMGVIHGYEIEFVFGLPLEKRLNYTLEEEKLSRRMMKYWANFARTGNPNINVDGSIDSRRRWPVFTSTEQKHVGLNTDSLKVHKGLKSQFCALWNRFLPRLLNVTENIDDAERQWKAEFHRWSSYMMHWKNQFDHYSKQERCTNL
Amyloid-beta precursor protein, sequence (P05067 whole entry): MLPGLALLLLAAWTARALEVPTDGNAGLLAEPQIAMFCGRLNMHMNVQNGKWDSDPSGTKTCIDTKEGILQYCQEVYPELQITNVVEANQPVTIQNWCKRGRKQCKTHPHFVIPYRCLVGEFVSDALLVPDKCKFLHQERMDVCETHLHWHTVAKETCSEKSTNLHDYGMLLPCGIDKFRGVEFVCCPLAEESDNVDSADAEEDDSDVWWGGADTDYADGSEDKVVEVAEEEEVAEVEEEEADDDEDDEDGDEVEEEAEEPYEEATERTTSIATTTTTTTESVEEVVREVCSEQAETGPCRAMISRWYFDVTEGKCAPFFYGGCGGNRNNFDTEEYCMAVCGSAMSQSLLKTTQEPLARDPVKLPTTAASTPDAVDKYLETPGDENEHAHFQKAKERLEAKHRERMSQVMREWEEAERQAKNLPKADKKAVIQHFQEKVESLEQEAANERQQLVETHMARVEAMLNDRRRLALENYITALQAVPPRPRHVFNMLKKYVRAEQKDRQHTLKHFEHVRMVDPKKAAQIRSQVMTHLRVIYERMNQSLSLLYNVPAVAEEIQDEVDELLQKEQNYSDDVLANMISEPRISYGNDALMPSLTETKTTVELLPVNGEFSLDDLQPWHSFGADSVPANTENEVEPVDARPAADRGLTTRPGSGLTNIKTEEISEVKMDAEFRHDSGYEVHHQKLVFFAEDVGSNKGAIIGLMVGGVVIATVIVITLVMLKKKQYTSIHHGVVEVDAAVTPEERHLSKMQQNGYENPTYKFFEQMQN
Cholinesterase, sequence (P81908 whole entry): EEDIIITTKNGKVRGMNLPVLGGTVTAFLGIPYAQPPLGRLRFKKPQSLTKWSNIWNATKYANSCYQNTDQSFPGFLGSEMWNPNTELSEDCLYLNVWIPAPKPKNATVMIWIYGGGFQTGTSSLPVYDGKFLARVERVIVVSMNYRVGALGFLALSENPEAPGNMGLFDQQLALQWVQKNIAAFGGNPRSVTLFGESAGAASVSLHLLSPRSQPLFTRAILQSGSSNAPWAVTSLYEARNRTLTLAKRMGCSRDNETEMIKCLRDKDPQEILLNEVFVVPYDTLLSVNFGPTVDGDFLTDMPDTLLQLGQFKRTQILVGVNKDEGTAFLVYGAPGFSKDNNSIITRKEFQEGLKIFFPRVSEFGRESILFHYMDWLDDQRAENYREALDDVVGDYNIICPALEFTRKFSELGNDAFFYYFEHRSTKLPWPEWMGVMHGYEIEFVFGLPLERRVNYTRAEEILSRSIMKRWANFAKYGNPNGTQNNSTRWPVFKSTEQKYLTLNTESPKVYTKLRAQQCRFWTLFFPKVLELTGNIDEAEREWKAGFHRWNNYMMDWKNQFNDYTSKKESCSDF
Acetylcholinesterase (Homo sapiens), sequence (P22303 whole entry): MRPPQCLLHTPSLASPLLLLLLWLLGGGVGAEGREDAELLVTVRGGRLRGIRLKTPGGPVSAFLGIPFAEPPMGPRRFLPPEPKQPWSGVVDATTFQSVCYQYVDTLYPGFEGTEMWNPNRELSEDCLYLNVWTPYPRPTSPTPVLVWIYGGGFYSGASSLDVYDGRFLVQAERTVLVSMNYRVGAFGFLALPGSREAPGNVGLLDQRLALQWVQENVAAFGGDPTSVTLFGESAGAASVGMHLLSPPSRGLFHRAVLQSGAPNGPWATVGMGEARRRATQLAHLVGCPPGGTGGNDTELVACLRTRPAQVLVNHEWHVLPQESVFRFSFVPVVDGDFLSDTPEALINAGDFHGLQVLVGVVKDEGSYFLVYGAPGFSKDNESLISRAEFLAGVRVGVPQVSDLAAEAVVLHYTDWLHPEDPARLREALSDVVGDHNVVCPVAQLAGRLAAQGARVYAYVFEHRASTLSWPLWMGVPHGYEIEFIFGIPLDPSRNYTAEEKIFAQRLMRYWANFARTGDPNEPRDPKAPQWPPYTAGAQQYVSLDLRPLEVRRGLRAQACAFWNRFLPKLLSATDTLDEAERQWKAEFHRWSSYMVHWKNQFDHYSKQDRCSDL

SMILES | IC50 [1] [nM] | IC50 [2] [nM] | IC50 [3] [nM] | inhibition [4] [%] | inhibition [5] | inhibition [6] | Activity [7] | Activity [8]
O=C(Nc1ccc2nc3n(c(=O)c2c1)CCC3)c1cc2ccccc2[nH]1 | 1560 | 900 | 2160 |  |  |  |  | 
O=C(Nc1ccc2nc3n(c(=O)c2c1)CCC3)c1cc2cc(Cl)ccc2[nH]1 | 260 | 770 | 1690 | 52.1 |  |  |  | 
Cc1cc2nc3n(c(=O)c2cc1NC(=O)c1cc2cc(Cl)ccc2[nH]1)CCC3 | 1080 | 4670 | 5100 |  |  |  |  | 
O=C(Nc1ccc2nc3n(c(=O)c2c1)CCC3)c1cc2ccccc2o1 | 1510 | 1850 | 3260 |  |  |  |  | 
O=C(/C=C/c1cc2ccccc2[nH]1)Nc1ccc2nc3n(c(=O)c2c1)CCC3 | 1650 | 4470 | 3090 |  |  |  |  | 
Cc1cc2nc3n(c(=O)c2cc1NC(=O)c1cc2cc(F)ccc2[nH]1)CCC3 | 1350 | 1720 | 3270 |  |  |  |  | 
COc1ccc2[nH]c(C(=O)Nc3ccc4nc5n(c(=O)c4c3)CCC5)cc2c1 | 120 | 150 | 1210 | 80 | Active | Active | Non-Toxic | Non-Toxic
O=C(Nc1ccc2nc3n(c(=O)c2c1)CCC3)c1cc2ccccc2s1 | 2510 | 1900 | 2300 |  |  |  |  | 
O=C(Nc1ccc2nc3n(c(=O)c2c1)CCC3)c1cc2cc(F)ccc2[nH]1 | 780 | 750 | 1560 | 61.8 |  |  |  | 
COc1ccc2[nH]c(C(=O)Nc3cc4c(=O)n5c(nc4cc3C)CCC5)cc2c1 | 2080 | 5230 | 6100 |  |  |  |  | 
O=C(Cc1cc2ccccc2[nH]1)Nc1ccc2nc3n(c(=O)c2c1)CCC3 | 980 | 1380 | 1620 |  |  |  |  | 
O=C(CCCc1cc2ccccc2[nH]1)Nc1ccc2nc3n(c(=O)c2c1)CCC3 | 6350 | 1600 | 5270 |  |  |  |  | 
